In article PMC4051601, “Identification of NAD(P)H Quinone Oxidoreductase Activity in Azoreductases from P. aeruginosa: Azoreductases and NAD(P)H Quinone Oxidoreductases Belong to the Same FMN-Dependent Superfamily of Enzymes” (PLoS ONE, 2014):

Assays:
paAzoR1 (PA0785) [1] = target: T1, paAzoR1 (PA0785) (Pseudomonas aeruginosa, UniProt Q9I5F3); assay: X-ray crystallography, […] A; assay type: binding; details: FMN-bound enzyme; one of two active sites; occupancy 0.5; hydrogen bond to Tyr131; co-crystallised with 2 mM ligand, pH 8
T1 construct: gene azoR1; pure recombinant protein, expressed and purified as described previously; dimer with FMN
T1 sequence (Q9I5F3 1-212): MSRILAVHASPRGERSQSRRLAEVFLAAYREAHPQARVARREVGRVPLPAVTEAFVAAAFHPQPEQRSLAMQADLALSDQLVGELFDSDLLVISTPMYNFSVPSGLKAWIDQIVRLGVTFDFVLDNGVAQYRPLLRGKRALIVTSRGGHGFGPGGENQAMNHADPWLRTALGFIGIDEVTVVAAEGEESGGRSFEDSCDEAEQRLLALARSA

paAzoR1 (PA0785) [2] = target: T1, paAzoR1 (PA0785); assay: X-ray crystallography, […] A; assay type: binding
paAzoR1 (PA0785) [3] = target: T1, paAzoR1 (PA0785); assay: NADPH oxidation at […] nm; assay type: biochemical; details: 50 uM quinone, 500 uM NADPH, 20 mM Tris-HCl pH 8, 100 mM NaCl, 5% DMSO; only a specific rate given
paAzoR3 (PA3223) = target: T2, paAzoR3 (PA3223) (Pseudomonas aeruginosa, UniProt Q9HZ17); assay: NADH oxidation at […] nm; assay type: biochemical; details: 50 uM quinone, 500 uM NADH, 20 mM Tris-HCl pH 8, 100 mM NaCl, 5% DMSO; only a specific rate given
T2 construct: gene azoR3; pure recombinant protein, expressed and purified as described previously
T2 sequence (Q9HZ17 1-213): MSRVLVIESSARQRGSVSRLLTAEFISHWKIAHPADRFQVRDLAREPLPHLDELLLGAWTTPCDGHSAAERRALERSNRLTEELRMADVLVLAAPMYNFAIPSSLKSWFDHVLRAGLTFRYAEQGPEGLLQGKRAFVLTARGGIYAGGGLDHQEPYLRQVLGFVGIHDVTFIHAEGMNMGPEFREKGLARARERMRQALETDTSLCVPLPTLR

In the case of COC1=C(OC)C(=O)C(CC=C(C)C)=C(C)C1=O [UQ1, Coenzyme Q1], the “X-ray crystallography, 2.0 A” value (paAzoR1 (PA0785) [1]) is reported as “structures of paAzoR1 bound to two quinone substrates (UQ1 and AQN) have been solved”.

For O=C1c2ccccc2C(=O)c2cc(S(=O)(=O)O)ccc21 [AQN, anthraquinone-2-sulphonate], the “X-ray crystallography, 1.8 A” value (paAzoR1 (PA0785) [2]; FMN-bound enzyme, one of two active sites, pi-stacking on FMN, co-crystallised with 2 mM ligand, pH 8) was “structures of paAzoR1 bound to two quinone substrates (UQ1 and AQN) have been solved”.

With O=C1C=CC(=O)C=C1 [Bzq, Benzoquinone] the “NADPH oxidation at 340 nm” value (paAzoR1 (PA0785) [3]) was “paAzoR1 has a preference for benzoquinones e.g. Bzq (Fig. 3a)”.

In the case of Cc1cc2nc3c(=O)[nH]c(=O)nc-3n(C[C@H](O)[C@H](O)[C@H](O)COP(=O)(O)O)c2cc1C [FMN], the “X-ray crystallography, 1.8 A” value (paAzoR1 (PA0785) [2]; structure with AQN, FMN also seen in the UQ1 complex (4N9Q)) is reported as “AQN also forms π-π stacking interactions with the central ring of FMN”.

CC1=CC(=O)c2c(O)cccc2C1=O [Plu, Plumbagin] was tested, and the “NADH oxidation at 340 nm” value (paAzoR3 (PA3223)) was “paAzoR3 prefers naphthoquinones e.g. Plu (Fig. 3c)”.
